What was measured:
[1] = target: T1, Cytochrome P450 11B2, mitochondrial (Homo sapiens, UniProt P19099); test: Inhibition Assay
T1 sequence (P19099 whole entry): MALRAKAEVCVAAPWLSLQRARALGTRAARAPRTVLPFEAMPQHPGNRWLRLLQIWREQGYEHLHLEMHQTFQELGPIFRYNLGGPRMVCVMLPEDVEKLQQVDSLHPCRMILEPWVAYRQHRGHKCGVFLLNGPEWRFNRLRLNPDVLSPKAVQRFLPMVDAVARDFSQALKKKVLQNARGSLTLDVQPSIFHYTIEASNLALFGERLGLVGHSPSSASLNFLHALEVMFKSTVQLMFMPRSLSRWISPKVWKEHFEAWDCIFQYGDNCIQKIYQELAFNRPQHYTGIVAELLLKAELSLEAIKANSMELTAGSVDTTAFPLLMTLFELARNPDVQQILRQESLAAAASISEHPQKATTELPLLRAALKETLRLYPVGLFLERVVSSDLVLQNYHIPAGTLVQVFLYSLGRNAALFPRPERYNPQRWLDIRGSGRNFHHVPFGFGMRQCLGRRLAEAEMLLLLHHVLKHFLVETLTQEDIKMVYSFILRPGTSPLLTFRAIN
Source text: (§1) The expression plasmids contains the ORF for either human/cyno CYP11B1 or CYP11B2 under the control of a suitable promoter (CMV-promoter) and a suitable resistance marker (neomycin). Using standard techniques the expression plasmid is transfected into G-402 cells and these cells are then selected for expressing the given resistance markers. Individual cell-clones are then selected and assessed for displaying the desired enzymatic activity using 11-Deoxycorticosterone (Cyp11B2) or 11-Deoxycortisol (Cyp11B1) as a substrate.G-402 cells expressing CYP11 constructs were established as described above and maintained in McCoy's 5a Medium Modified, ATCC Catalog No. 30-2007 containing 10% FCS and 400 μg/ml G418 (Geneticin) at 37° C. under an atmosphere of 5% CO2/95% air. Cellular enzyme assays were performed in DMEM/F12 medium containing 2.5% charcoal treated FCS and appropriate concentration of substrate (0.3-10 uM 11-Deoxycorticosterone, 11-Deoxycortisol or Corticosterone). For assaying enzymatic activity, cells were plated onto 96 well plates and incubated for 16 h. An aliquot of the supernatant is then transferred and analyzed for the concentration of the expected product (Aldosterone for CYP11B2; Cortisol for CYP11B1). The concentrations of these steroids can be determined using HTRF assays from CisBio analyzing either Aldosterone or Cortisol.

[2] = target: T2, Cytochrome P450 11B1, mitochondrial (Homo sapiens, UniProt P15538); test: Inhibition Assay
T2 sequence (P15538 whole entry): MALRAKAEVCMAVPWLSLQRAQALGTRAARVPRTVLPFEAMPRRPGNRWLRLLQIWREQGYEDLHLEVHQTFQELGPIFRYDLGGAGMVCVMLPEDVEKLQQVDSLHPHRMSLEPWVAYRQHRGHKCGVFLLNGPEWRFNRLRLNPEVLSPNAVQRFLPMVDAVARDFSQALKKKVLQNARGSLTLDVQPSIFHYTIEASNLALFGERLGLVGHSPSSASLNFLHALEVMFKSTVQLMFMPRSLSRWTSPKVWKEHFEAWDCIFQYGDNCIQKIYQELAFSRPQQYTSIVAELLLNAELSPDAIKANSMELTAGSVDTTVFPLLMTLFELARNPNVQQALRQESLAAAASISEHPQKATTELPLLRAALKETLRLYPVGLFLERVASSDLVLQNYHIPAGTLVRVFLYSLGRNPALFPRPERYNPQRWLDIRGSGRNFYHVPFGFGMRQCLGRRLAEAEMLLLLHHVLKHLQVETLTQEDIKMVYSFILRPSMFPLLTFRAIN
Source text: as §1

In the case of `CC(=O)N1CCC(C(C)c2c[nH]nc2-c2ccc3c(c2F)CCC(=O)N3C)CC1` (stereo not given) [US9796702, 36], the EC50 [1] is reported as 3 pM.

For `CC(=O)N1CCC([C@H](C)c2c[nH]nc2-c2ccc3c(c2F)CCC(=O)N3C)CC1` (single isomer, unassigned) [US9796702, 37], the EC50 [2] was 4.58 nM.

`CN1C(=O)CCc2cc(-c3n[nH]cc3CC3CCN(C(=O)c4cnn(C)c4)CC3)ccc21` [US9796702, 17] gave an EC50 [1] of 7 pM.

Compound `CCS(=O)(=O)N1CCC(Cc2c[nH]nc2-c2ccc3c(c2F)CCC(=O)N3C)CC1` [US9796702, 22] has an EC50 [1] of 2 pM.

`CC(=O)N1CCC(C(C)c2c[nH]nc2-c2cc3c(cc2F)N(C)C(=O)CC3)CC1` (racemic) [US9796702, 35] showed an EC50 [1] of 5 pM.
